# According to patent US20120108947A1, “METHOD FOR PREDICTING WEIGHT GAIN ASSOCIATED WITH A PHARMACEUTICAL THERAPY” (priority 2009, published 2012):
# Settings: in vivo
# Experimental: TRL V1, V2, V3, V4, V5 and V6 responses and VLDL size response are measured during each visit along with increases in weight. […] The relationship of the change in TRL V6 to the change in weight is analyzed using a mixed effects model analysis.
smiles,measurement,value
"Cc1cc2c(s1)Nc1ccccc1N=C2N1CCN(C)CC1 [olanzapine, 2-methyl-4-(4-methyl-1-piperazinyl)-10H-thieno[2,3-b][1,5]benzodiazepine]",magnitude of the TRL V6 response and VLDL size response in comparison to pre-dose concentration,increases
